# How the values were obtained:
# [1] = test system: Mycobacterium tuberculosis; assay: Antitubercular activity against Mycobacterium tuberculosis H37Rv ATCC 27294 after 28 days by agar dilution method; format: functional; conditions: H37Rv ATCC 27294, 672 h
# [2] = Cytotoxicity against mouse NIH/3T3 cells assessed as growth inhibition at 50 ug/ml after 48 hrs by MTT assay relative to control; format: cell-based, NIH3T3; conditions: read-out: GI
SMILES,MIC [1],"inhibition at 48 h, 50 ug/ml [2]"
COc1ccc(-c2nc3sc(C)nn3c2COCc2cn(Cc3ccccc3F)nn2)cc1,25 µg/mL,–
CCOC(=O)Cn1cc(COCc2c(-c3ccc(OC)cc3)nc3sc(C)nn23)nn1,50 µg/mL,–
CCn1cc(COCc2c(-c3ccc(OC)cc3)nc3sc(C)nn23)nn1,25 µg/mL,–
COc1ccc(-c2nc3sc(C)nn3c2COCc2cn(CC#N)nn2)cc1,50 µg/mL,–
COc1ccc(-c2nc3sc(C)nn3c2COCc2cn(Cc3ccc(F)cc3)nn2)cc1,12.5 µg/mL,19.1%
COc1ccc(-c2nc3sc(C)nn3c2COCc2cn(Cc3ccccc3)nn2)cc1,3.12 µg/mL,22.7%
CCOC(=O)Cn1cc(COCc2c(-c3ccc(C)cc3)nc3sc(C)nn23)nn1,50 µg/mL,–
CCn1cc(COCc2c(-c3ccc(C)cc3)nc3sc(C)nn23)nn1,25 µg/mL,–
Cc1ccc(-c2nc3sc(C)nn3c2COCc2cn(CC#N)nn2)cc1,25 µg/mL,–
Cc1ccc(-c2nc3sc(C)nn3c2COCc2cn(Cc3ccccc3F)nn2)cc1,50 µg/mL,–
Cc1ccc(-c2nc3sc(C)nn3c2COCc2cn(Cc3ccc(F)cc3)nn2)cc1,50 µg/mL,–
Cc1ccc(-c2nc3sc(C)nn3c2COCc2cn(Cc3ccccc3)nn2)cc1,25 µg/mL,–
CCOC(=O)Cn1cc(COCc2c(-c3ccc(Cl)cc3)nc3sc(C)nn23)nn1,12.5 µg/mL,28.2%
CCn1cc(COCc2c(-c3ccc(Cl)cc3)nc3sc(C)nn23)nn1,3.12 µg/mL,20.1%
Cc1nn2c(COCc3cn(C(C)C)nn3)c(-c3ccc(Cl)cc3)nc2s1,50 µg/mL,–
Cc1nn2c(COCc3cn(CC#N)nn3)c(-c3ccc(Cl)cc3)nc2s1,6.25 µg/mL,27.3%
Cc1nn2c(COCc3cn(Cc4ccccc4F)nn3)c(-c3ccc(Cl)cc3)nc2s1,50 µg/mL,–
Cc1nn2c(COCc3cn(Cc4ccc(F)cc4)nn3)c(-c3ccc(Cl)cc3)nc2s1,25 µg/mL,–
Cc1nn2c(COCc3cn(Cc4ccccc4)nn3)c(-c3ccc(Cl)cc3)nc2s1,25 µg/mL,–
Cc1nn2c(COCc3cn(CC(=O)O)nn3)c(-c3ccc(Cl)cc3)nc2s1,50 µg/mL,–
CC[C@@H](CO)NCCN[C@@H](CC)CO [ETHAMBUTOL],3.12 µg/mL,–
NNC(=O)c1ccncc1 [ISONIAZID],0.1 µg/mL,–
NC(=O)c1cnccn1 [PYRAZINAMIDE],50 µg/mL,–

# Source: ChEMBL document CHEMBL3616467, “One-pot synthesis of new triazole--Imidazo[2,1-b][1,3,4]thiadiazole hybrids via click chemistry and evaluation of their antitubercular activity” (Bioorg Med Chem Lett, 2015)
